Test results published in patent US8207142B2, “Inhibitor of DNA methylation” (priority 2001, dated 2012).
Values joined by “and” are separate entries in the source; they are usually repeats but may differ in a detail not shown here. Identical values can stand only once.

Tests used:
[1] = tested on: DNA methylation of the am^RIP and ψ63 sequences; assay: Southern blot analysis of DNA methylation in N. crassa (Dpn II vs Sau3AI digests); format: cell-based, Neurospora crassa; settings: 12 and 24 μM 5-AC; 0.33 and 3.3 μM TSA; 20, 39, 78, 160 and 310 μM Zebularine
Procedure: DNA was digested with Dpn II (D) or Sau3AI (S), fractionated by gel electrophoresis, transferred to a membrane and probed for am (FIG. 4A) or ψ63 (FIG. 4B) sequences. Dpn II and Sau3AI both recognize the sequence GATC, but Sau3AI fails to cleave if the C residue is methylated. Thus, differences between S and D lanes are indicative of DNA methylation.
The ramp symbols at the top of the figure represent increasing concentrations of drug. Drug concentrations were 12 and 24 μM 5-AC; 0.33 and 3.3 μM TSA; and 20, 39, 78, 160 and 310 μM Zebularine. The positions of selected size standards (kb) are indicated.
Southern hybridizations were performed on DNA samples (−1 μg) isolated from liquid cultures inoculated with 7×10^4 conidia/ml. DNA was digested with Dpn II (D) or Sau3AI (S), fractionated by gel electrophoresis, transferred to a nylon membrane and probed for am^RIP (FIG. 4A) or ψ63 (FIG. 4B) sequences. The restriction endonucleases Dpn II and-Sau3AI both recognize the sequence GATC, but Sau3AI fails to cleave if the C residue is methylated. Drug concentrations were […] 5-AC, 0.33 and 3.3 μM TSA, and […] Zebularine.
The positions of selected size standards (kb) and the origin (ori) are indicated. […] Differences between S and D lanes are indicative of DNA methylation.

[2] = tested on: p3 locus; assay: Ms-SNuPE quantitation of DNA methylation in 10T1/2 cells; format: cell-based, mouse; settings: 24 hours, control 86
Procedure: The average methylation at defined CpG sites was quantitated using a Ms-SNuPE assay, as described by Gonzalgo and Jones (Nucleic Acids Res. 25:2529-2531, 1997) and U.S. Pat. No. 6,251,594. Briefly, genomic DNA (˜4 μg) was digested overnight with 4 units of EcoRI (Boehringer Mannheim) (p16 promoter/exon 1 and p16 exon 2; FIG. 9A) or with 4 units of RsaI (Boehringer Mannheim) (P3; FIG. 9B) to cut outside the region of interest.
After standard treatment with sodium bisulfite, a PCR product of the region was generated as template for top-strand methylation analysis. The sequences of the primers used for bisulfite-treated DNA amplification were as follows: […]
P3: 95° C. for 2 minutes, 95° C. for 1 minute, 50° C. for 50 seconds, and 72° C. for 1 minute for 40 cycles, with a final extension at 72° C. for 10 minutes.
Duplicates of 4 μl of template were then added to 6 μl of mixture consisting of 1× PCR buffer, 1 μM final concentration primers, 1 μCi of [^32P]dCTP or dTTP, and 1 unit 1:1 Taq/TaqStart antibody (Clontech, Palo Alto, Calif.). Single nucleotide extension involved incubation at 95° C. for 1 minute, then 50° C. for 2 minutes, and finally 72° C. for 1 minute (p16 promoter/exon1 and P16 exon 2) and 95° C. for 1 minute, then 46° C. for 30 seconds, and finally 72° C. for 20 seconds (P3). The sequences for SNuPE primers were as follows: […]
After briefly spinning down the tubes, 4 μl of stop solution were added to the 10-μl reaction volume, and the samples were boiled for 5 minutes at 95° C. before loading 1.5 μl onto a 15% denaturing polyacrylamide gel (7 M urea). The gel was run at 90 W for 1.5 hours and then dried at 80° C. for 40 minutes. The gel was exposed to a phosphorimaging cassette for quantitation of the ratio of [^32P]dCTP versus [^32P]dTTP incorporation, and the quantitation of the percent methylation was averaged from three separate CpG sites. The gel was then exposed to BioMax MR film (Kodak) to record experimental results.

[3] = tested on: 10T1/2 cells; assay: Colony-formation assay (plating efficiency) in 10T1/2 cells; format: cell-based, mouse; settings: for Ave. Plating Efficiency (%): 250 cells, stained after 14-16 days, control 22; for decrease in plating deficiency (cytotoxicity) / cell death observed: 10T1/2 cells; for cell death observed: 0.3 μM 5-Aza-CdR, 3 μM 5-Aza-CR, 30 μM Zebularine
Procedure: (§1) The percentage cell survival was assessed by dividing the mean colony number on the treated plates divided by the mean colony number on the untreated plates ×100.

[4] = tested on: T24 cells; assay: Colony-formation assay (decrease in plating efficiency) in T24 cells; format: cell-based, human
Procedure: as §1

[5] = tested on: EJ6 tumors; assay: EJ6 tumors in BALB/c nu/nu mice, tumor volume and histology; format: in vivo
Procedure: EJ6 cells (5×10^5/injection) were inoculated subcutaneously into the right and left flanks of male BALB/c nu/nu mice at 4-6 weeks of age (available from Harlan, San Diego, Calif.). Zebularine treatments were initiated after macroscopic (50-200 mm 3) tumor formation (4-6 weeks later). Zebularine (500 mg/kg or 1000 mg/kg) was administered daily via intraperitoneal injection or oral gauage feeding over a period of 18 days. Control mice received 0.45% saline administered via intraperitoneal injection or oral gavage feeding over a period of 18 days. Mice (n=30) were divided into five groups (control group, 500 mg/kg intraperitoneal injection, 500 mg/kg oral, 1000 mg/kg intraperitoneal injection, and 1000 mg/kg oral). Each treatment group consisted of a minimum of five animals (at least 6 tumors per group).
Tumor volumes (TV) were measured with calipers and calculated using the following formula: tumor volume=LD^2/2 (where L is the longest diameter and D is the shortest diameter). The relative tumor volume (RTV) was calculated as: RTV=TVn/TVo, where TVn is the calculated volume at day n. Animals were sacrificed 24 hours after the last treatment. Tumors were removed, immediately fixed with neutral buffered formalin and then embedded in OCT compound for frozen sections. The frozen sections were processed and stained with hematoxylin and eosin (H&E). All histological examinations were carried out by light microscopy using a Leica DM LB microscope (Leica Microsystems, Germany).

Nc1ncn([C@@H]2O[C@H](CO)[C@@H](O)[C@H]2O)c(=O)n1 [5-Aza-CR, 5-azacytidine, reference compound]
effect on DNA methylation (Southern blot) [1]: inhibits DNA methylation globally | % Methylation ([2]; 1 μM): 65 +/− 2% | % Methylation ([2]; 3 μM): 59% and 59 +/− 6% | Ave. Plating Efficiency (%) ([3]; 1 μM): 21% | decrease in plating deficiency (cytotoxicity) ([3]; 3 μM): 24% | Ave. Plating Efficiency (%) ([3]; 3 μM): 16% | cell death observed [3]: appreciable cell death | Toxicity (%) (decrease in plating efficiency) ([4]; 3 μM, 24 hrs): 2% | Toxicity (%) (decrease in plating efficiency) ([4]; 10 μM, 24 hrs): 12% | Toxicity (%) (decrease in plating efficiency) ([4]; 30 μM, 24 hrs): 30% | Toxicity (%) (decrease in plating efficiency) ([4]; 100 μM, 24 hrs): 54%

O=c1ncccn1[C@@H]1O[C@H](CO)[C@@H](O)[C@H]1O [Zebularine, 1-β-ribofuranosyl-1,2-dihydropyrimidin-2-one]
effect on DNA methylation (Southern blot) [1]: inhibits DNA methylation globally | % Methylation ([2]; 10 μM): 75 +/− 2% | % Methylation ([2]; 30 μM): 58% and 58 +/− 1% | Ave. Plating Efficiency (%) ([3]; 10 μM): 20% | Ave. Plating Efficiency (%) ([3]; 30 μM): 18% | decrease in plating deficiency (cytotoxicity) [3]: 17% | cell death observed [3]: only very little cell death | Toxicity (%) (decrease in plating efficiency) ([4]; 300 μM, 24 hrs): 1% | Toxicity (%) (decrease in plating efficiency) ([4]; 300 μM, 48 hrs): 2% | Toxicity (%) (decrease in plating efficiency) ([4]; 500 μM, 24 hrs): 7% | Toxicity (%) (decrease in plating efficiency) ([4]; 500 μM, 48 hrs): 8% | Toxicity (%) (decrease in plating efficiency) ([4]; 1000 μM (1 mM), 48 hrs): 23% | Toxicity (%) (decrease in plating efficiency) ([4]; 1000 μM, 24 hrs): 18% | tumor regression ([5]; 1000 mg/kg orally or intraperitoneally, daily, 18 days): tumor regression was observed | tumor growth (relative tumor volume) vs control group ([5]; all treated groups: 500 or 1000 mg/kg daily, intraperitoneal or oral, 18 days): tumor growth appeared suppressed | ratio of tumor cells to stroma (H&E stained tumor sections), treated versus untreated ([5]; tumors removed 24 hours after the last treatment): lower ratio of tumor cells to stroma
